# Data: patent US10520514B2, “Method for monitoring post-translational modification of protein” (KOREA INSTITUTE OF SCIENCE AND TECHNOLOGY, priority 2017, dated 2019)
# Legend:
# Type in all cases: biochemical
# O-glycosylated tau = assay: Nanogap biosensor impedance of microbeads bound to tau protein, reacted with O-GlcNAc (CTD110.6) antibody
# Experimental: (§1) A tosylate-treated magnetic bead (Thermo Fisher, Dynabead M-280, diameter 2.8 μm, 14203) and a tau protein binding antibody (abcam, Anti-Tau (Phosphor S262) antibody, ab64193, 50 μl/250 μl) are inserted in a 0.1 M PBS buffer and placed in a 37° C. incubator, and incubated on a roll mixer for 24 hours.
# (§2) Next, the magnetic bead bound to the tau protein binding antibody are washed with 0.4% Block ACE (AbD serotec, USA) and blocked with 0.2 M tris buffer. 30 mg/mL of the microbead solution was stored in PBST (Phosphate Buffered Saline with Tween-20, 0.01% Tween-20) containing 0.4% Block Ace.
# (§3) The tau protein at a concentration of 5250 ng/mL was diluted 1/10 in various concentrations (0.5 fg/mL to 50 pg/mL) using 0.1% PBST. Tau protein was treated with Thiamet G, an O-glycosylation drug, if necessary.
# (§4) The microbead bound to the tau protein binding antibody were diluted to 300 μl/ml using 0.1% PBST, and the tau protein (diluent) and the microbead (diluent) were mixed at a concentration of 1:2 and reacted in a refrigerator for 22 hours.
# (§5) Next, the microbead bound to the tau protein is washed twice with 0.1% PBST and washed twice with PBS (Phosphate Buffered Saline). Thereafter, it is diluted to a bead concentration of 60 μl/ml using PBS.
# (§6) A microbead (300 μl/ml) bound to tau protein were prepared in the same manner as in Synthesis Example 1.
# The microbead is mixed with 10.4 ng of an antibody capable of binding O-glycosylated proteins (Cell signaling, O-GlcNAc (CTD110.6) Mouse mAB, #9875) and reacted in a refrigerator for 22 hours.
# The microbead bound to the O-glycosylated tau-binding antibody is washed twice with 0.1% PBST, washed twice with PBS, and diluted to a bead concentration of 60 μl/ml using PBS.
# (§7) The samples thus obtained were measured for impedance using a biosensor array (10×10 or 20×20) with an electrode interval of 0.7 μm. […] In addition, impedance change rate is a value (%) obtained by dividing a difference between the impedance Zneg of Neg and the impedance BAT or BAT2 of divided by the impedance Zneg of Neg and multiplied by 100. Impedance change rate difference is defined as a value obtained by subtracting the impedance change rate of BAT from the impedance change rate of BAT2.
# phosphorylated tau = assay: Nanogap biosensor impedance of microbeads bound to tau protein, reacted with AT8 antibody; conditions: 100 uM Thiamet G, tau protein 0.5 pg/ml
# Experimental: as §1, §2, §3, §4, §5, §6
# The microbead is mixed with 10 ng of an antibody capable of binding to phosphorylated tau protein (Thermo Fisher, Phospho-Tau (Ser202, Thr205) Antibody (AT8), MN1020) and reacted in a refrigerator for 22 hours.
# The microbead bound to the phosphorylated tau-binding antibody is washed twice with 0.1% PBST, washed twice with PBS, and diluted to a bead concentration of 60 μl/ml using PBS.
# as §7, with “Impedance change rate difference is defined as a value obtained by subtracting the impedance change rate of BAT from the impedance change rate of BAT2.” left out
# tau protein = assay: Ratio of impedance change due to phosphorylated tau (P) and O-glycosylated tau (O); conditions: 100 uM Thiamet G; tau protein 0.5 pg/ml
# Experimental: as §7
# [1] = 10 uM Thiamet G, tau protein 0.5 pg/ml, O-GlcNAc
# [2] = 30 uM Thiamet G, tau protein 0.5 pg/ml, O-GlcNAc
# [3] = 100 uM Thiamet G, tau protein 0.5 pg/ml, O-GlcNAc
smiles,measurement,setting,value
CCN=C1N[C@@H]2[C@@H](O)[C@H](O)[C@@H](CO)O[C@@H]2S1 [Thiamet G],BAT-BAT2,O-glycosylated tau; [1],4.3 MΩ
same,Impedance change rate difference,O-glycosylated tau; [1],1.62%
same,BAT-BAT2,O-glycosylated tau; [2],11.6 MΩ
same,Impedance change rate difference,O-glycosylated tau; [2],4.39%
same,BAT-BAT2,O-glycosylated tau; [3],30.5 MΩ
same,Impedance change rate difference,O-glycosylated tau; [3],11.54%
same,O ((BAT-BAT2)/Neg),O-glycosylated tau; [3],0.1154
same,Impedance change rate difference,"O-glycosylated tau; 100 uM Thiamet G, tau protein 0.5 fg/ml",7.5%
same,Impedance change rate difference,"O-glycosylated tau; 100 uM Thiamet G, tau protein 5.2 fg/ml",20.4%
same,Impedance change rate difference,"O-glycosylated tau; 100 uM Thiamet G, tau protein 52.4 fg/ml",28.9%
same,Impedance change rate difference,"O-glycosylated tau; 100 uM Thiamet G, tau protein 524 fg/ml",32.8%
same,Impedance change rate difference for the microbead combined with O-glycosylated antibody,O-glycosylated tau; when the concentration of Thiamet G was increased (Tables 1-1 and 1-2),greatly increased
same,BAT-BAT2,phosphorylated tau,0.59 MΩ
same,Impedance change rate difference,phosphorylated tau,1.28%
same,P ((BAT2-BAT)/Neg),phosphorylated tau,0.0128
same,P/O,tau protein,0.111
